Test results taken from ChEMBL document CHEMBL1909046, “DrugMatrix in vitro pharmacology data”.

Columns and labels:
[1] = molecular target: Sodium-dependent noradrenaline transporter (Homo sapiens, UniProt P23975); assay: DRUGMATRIX: Norepinephrine Transporter radioligand binding (ligand: [125I] RTI-55); type: cell membranes, MDCK, Membrane; conditions: Not Active = under 50% inhibition at 10 µM
D(4) dopamine receptor = molecular target: T1, D(4) dopamine receptor (Homo sapiens, UniProt P21917); assay: DRUGMATRIX: Dopamine D4.2 radioligand binding (ligand: [3H] Spiperone); type: cell membranes, CHO-K1, Membrane; conditions: cho-k1; Not Active = under 50% inhibition at 10 µM
T1 sequence (P21917 whole entry): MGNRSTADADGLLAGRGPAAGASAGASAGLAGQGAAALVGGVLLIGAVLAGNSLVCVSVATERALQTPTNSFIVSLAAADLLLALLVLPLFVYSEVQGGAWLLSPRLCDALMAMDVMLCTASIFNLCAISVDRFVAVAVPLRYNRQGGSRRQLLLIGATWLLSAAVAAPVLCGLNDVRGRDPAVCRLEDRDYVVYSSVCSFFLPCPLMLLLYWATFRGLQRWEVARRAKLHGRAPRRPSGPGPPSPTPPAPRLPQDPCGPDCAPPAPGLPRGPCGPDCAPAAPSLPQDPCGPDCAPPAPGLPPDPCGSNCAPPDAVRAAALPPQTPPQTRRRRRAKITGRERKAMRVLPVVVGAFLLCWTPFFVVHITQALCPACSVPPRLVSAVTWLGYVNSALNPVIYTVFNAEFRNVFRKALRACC

[2] = molecular target: Delta-type opioid receptor (Homo sapiens, UniProt P41143); type: cell membranes, HEK293, Membrane; further: in other assays of this panel Not Active means under 50% inhibition at 10 µM
Calcitonin receptor = molecular target: T2, Calcitonin receptor (Homo sapiens, UniProt P30988); type: cell membranes, Membrane; conditions: t47d; further: in other assays of this panel Not Active means under 50% inhibition at 10 µM
T2 sequence (P30988 whole entry): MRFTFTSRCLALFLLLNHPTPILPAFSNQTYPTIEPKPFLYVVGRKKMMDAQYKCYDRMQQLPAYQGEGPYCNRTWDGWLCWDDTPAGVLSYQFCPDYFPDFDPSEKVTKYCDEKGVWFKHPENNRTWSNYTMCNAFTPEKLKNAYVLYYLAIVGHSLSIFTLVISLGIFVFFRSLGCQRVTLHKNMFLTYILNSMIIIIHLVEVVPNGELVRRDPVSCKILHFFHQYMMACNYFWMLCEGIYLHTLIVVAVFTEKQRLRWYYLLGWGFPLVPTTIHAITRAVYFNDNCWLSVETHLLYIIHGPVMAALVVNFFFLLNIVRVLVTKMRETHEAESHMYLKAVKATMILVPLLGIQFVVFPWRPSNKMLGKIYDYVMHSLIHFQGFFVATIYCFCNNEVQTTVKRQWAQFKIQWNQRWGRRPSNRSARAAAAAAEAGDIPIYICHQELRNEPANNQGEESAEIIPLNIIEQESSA

Adenosine receptor A3 = molecular target: T3, Adenosine receptor A3 (Homo sapiens, UniProt P0DMS8); type: cell membranes, CHO-K1, Membrane;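 further: radioligand binding assay with AB-MECA serving as the labeled ligand; in other assays of this panel Not Active means under 50% inhibition at 10 µM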
T3 sequence (P0DMS8 whole entry): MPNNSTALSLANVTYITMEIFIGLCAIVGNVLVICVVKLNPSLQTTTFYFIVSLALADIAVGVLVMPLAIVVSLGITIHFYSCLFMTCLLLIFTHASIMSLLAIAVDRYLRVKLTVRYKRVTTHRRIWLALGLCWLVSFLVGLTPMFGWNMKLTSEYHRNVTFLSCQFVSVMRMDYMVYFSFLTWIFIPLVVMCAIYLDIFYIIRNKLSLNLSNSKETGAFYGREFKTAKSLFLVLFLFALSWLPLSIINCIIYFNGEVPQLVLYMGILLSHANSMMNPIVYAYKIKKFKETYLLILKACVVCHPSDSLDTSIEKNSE

[3] = molecular target: T4, Neuropeptide Y receptor type 2 (Homo sapiens, UniProt P49146); type: cell membranes, Membrane; conditions: kan-ts; further: in other assays of this panel Not Active means under 50% inhibition at 10 µM
T4 sequence (P49146 whole entry): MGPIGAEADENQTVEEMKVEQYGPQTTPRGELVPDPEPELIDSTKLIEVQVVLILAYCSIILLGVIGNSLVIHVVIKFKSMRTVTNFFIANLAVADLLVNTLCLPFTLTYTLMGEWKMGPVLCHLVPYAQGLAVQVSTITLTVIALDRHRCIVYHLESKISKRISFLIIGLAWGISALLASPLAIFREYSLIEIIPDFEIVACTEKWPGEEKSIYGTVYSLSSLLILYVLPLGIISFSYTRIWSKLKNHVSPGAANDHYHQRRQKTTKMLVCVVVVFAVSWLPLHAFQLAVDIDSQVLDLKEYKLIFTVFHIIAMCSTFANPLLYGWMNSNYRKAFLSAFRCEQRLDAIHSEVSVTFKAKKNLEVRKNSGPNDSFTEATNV

Cytochrome P450 2E1 = Cytochrome P450 2E1 (Homo sapiens, UniProt P05181); conditions: bti-tn-5b1-4; further: in other assays of this panel Not Active means under 50% inhibition at 10 µM
Cytochrome P450 2E1, sequence (P05181 whole entry): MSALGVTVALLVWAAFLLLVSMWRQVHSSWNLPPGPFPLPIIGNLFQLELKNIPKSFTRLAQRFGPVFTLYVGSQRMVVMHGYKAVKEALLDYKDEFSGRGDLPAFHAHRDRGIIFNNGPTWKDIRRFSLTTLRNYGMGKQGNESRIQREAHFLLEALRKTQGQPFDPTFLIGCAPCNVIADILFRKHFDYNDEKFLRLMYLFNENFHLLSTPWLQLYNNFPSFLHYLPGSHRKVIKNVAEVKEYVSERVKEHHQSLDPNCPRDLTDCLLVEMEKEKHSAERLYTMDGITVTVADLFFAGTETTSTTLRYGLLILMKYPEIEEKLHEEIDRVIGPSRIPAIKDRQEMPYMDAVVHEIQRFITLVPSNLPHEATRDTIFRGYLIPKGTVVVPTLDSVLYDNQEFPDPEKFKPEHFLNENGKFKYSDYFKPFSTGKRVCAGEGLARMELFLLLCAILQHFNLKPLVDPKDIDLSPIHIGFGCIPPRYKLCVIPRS

Delta-type opioid receptor, sequence (P41143 whole entry): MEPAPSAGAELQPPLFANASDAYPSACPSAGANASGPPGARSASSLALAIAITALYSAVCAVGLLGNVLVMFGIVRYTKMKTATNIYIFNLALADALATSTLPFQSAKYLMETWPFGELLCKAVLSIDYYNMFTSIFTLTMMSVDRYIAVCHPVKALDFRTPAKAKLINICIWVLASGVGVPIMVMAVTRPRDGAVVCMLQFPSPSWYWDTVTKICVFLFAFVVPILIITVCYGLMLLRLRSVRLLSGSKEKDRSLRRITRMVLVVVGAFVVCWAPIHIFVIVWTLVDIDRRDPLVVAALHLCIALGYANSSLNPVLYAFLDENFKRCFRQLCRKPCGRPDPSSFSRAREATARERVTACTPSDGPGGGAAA
Sodium-dependent noradrenaline transporter, sequence (P23975 whole entry): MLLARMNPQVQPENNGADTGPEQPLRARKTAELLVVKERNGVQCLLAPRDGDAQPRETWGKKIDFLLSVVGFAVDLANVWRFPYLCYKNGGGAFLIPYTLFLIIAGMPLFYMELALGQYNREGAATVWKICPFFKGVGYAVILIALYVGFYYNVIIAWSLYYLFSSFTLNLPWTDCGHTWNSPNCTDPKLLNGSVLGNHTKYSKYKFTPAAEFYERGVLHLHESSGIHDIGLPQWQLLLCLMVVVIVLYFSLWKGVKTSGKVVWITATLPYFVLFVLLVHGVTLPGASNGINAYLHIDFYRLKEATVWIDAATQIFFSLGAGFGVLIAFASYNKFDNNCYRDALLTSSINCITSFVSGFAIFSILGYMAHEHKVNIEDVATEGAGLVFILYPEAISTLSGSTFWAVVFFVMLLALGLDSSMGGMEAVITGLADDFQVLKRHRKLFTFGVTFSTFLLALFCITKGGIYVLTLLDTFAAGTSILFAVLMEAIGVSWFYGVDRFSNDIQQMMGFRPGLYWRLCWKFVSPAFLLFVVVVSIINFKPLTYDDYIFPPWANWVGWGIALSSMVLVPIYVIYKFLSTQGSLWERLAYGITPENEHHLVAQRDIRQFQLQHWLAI

Compound | IC50 ([1]; mdck) | IC50 (D(4) dopamine receptor) | IC50 ([2]; hek293) | IC50 (Calcitonin receptor) | IC50 (Adenosine receptor A3; cho-k1) | IC50 [3] | IC50 (Cytochrome P450 2E1) | Ki (Cytochrome P450 2E1) | IC50 ([1]; read-out: IC50) | Ki ([1]; read-out: Ki) | IC50 ([2]; read-out: IC50) | Ki ([2]; read-out: Ki) | IC50 (Adenosine receptor A3; read-out: IC50) | Ki (Adenosine receptor A3; read-out: Ki)
OC[C@H]1OC2C3[C@@H](CO)OC(O[C@H]4[C@H](O)[C@@H](O)[C@@H](O[C@H]5[C@H](O)[C@@H](O)[C@@H](O[C@H]6[C@H](O)[C@@H](O)[C@@H](O[C@H]7[C@H](O)[C@@H](O)[C@@H](O[C@H]8[C@H](O)[C@@H](O)[C@@H](O[C@H]9[C@H](O)[C@@H](O)C(OC1[C@H](O)[C@H]2O)O[C@@H]9CO)O[C@@H]8CO)O[C@@H]7CO)O[C@@H]6CO)O[C@@H]5CO)O[C@@H]4CO)[C@H](O)[C@H]3O | Not Active | Not Active | Not Active | Not Active | Not Active | Not Active | Not Active | Not Active | – | – | – | – | – | –
C=CCO [ALLYL ALCOHOL] | Not Active | Not Active | Not Active | Not Active | Not Active | Not Active | Not Active | Not Active | – | – | – | – | – | –
C[C@]12CC[C@@H](O)C[C@@H]1CC[C@@H]1[C@@H]2CC[C@]2(C)C(=O)CC[C@@H]12 [ANDROSTERONE] | Not Active | Not Active | Not Active | Not Active | Not Active | Not Active | Not Active | Not Active | – | – | – | – | – | –
COC(=O)Nc1nc2ccc(Sc3ccccc3)cc2[nH]1 [FENBENDAZOLE] | Not Active | Not Active | Not Active | Not Active | Not Active | Not Active | Not Active | Not Active | – | – | – | – | – | –
C#C[C@]1(O)CC[C@H]2[C@@H]3CCC4=CC(=O)CC[C@@H]4[C@H]3CC[C@@]21C [NORETHINDRONE] | Not Active | Not Active | Not Active | Not Active | Not Active | Not Active | Not Active | Not Active | – | – | – | – | – | –
O=C(Nc1ccc(Cl)c(Cl)c1)c1cc(Cl)cc(Cl)c1O [3,3',4',5-TETRACHLOROSALICYLANILIDE] | Not Active | Not Active | Not Active | Not Active | Not Active | Not Active | Not Active | Not Active | – | – | – | – | – | –
CCN(CCO)CCCC(C)Nc1ccnc2cc(Cl)ccc12 (centres undefined) [HYDROXYCHLOROQUINE] | Not Active | Not Active | Not Active | Not Active | Not Active | Not Active | Not Active | Not Active | – | – | – | – | – | –
CC1(COc2ccc(CC3SC(=O)NC3=O)cc2)CCCCC1 (centres undefined) [CIGLITAZONE] | – | Not Active | – | Not Active | – | Not Active | Not Active | Not Active | 2220 nM | 2200 nM | 26.9 µM | 9.48 µM | 3.05 µM | 1720 nM
COc1cc([C@@H]2c3cc4c(cc3[C@H](O)[C@H]3COC(=O)[C@H]23)OCO4)cc(OC)c1OC [PODOFILOX] | Not Active | Not Active | Not Active | Not Active | Not Active | Not Active | Not Active | Not Active | – | – | – | – | – | –
COC(=O)C[C@](O)(CCC(C)(C)O)C(=O)O[C@@H]1C(OC)=C[C@]23CCCN2CCc2cc4c(cc2[C@H]13)OCO4 [HARRINGTONINE] | Not Active | Not Active | Not Active | Not Active | Not Active | Not Active | Not Active | Not Active | – | – | – | – | – | –
CCCCCCNC(=O)n1cc(F)c(=O)[nH]c1=O [CARMOFUR] | Not Active | Not Active | Not Active | Not Active | Not Active | Not Active | Not Active | Not Active | – | – | – | – | – | –
O=c1[nH]cnc2c1ncn2[C@H]1CC[C@@H](CO)O1 [DIDANOSINE] | Not Active | Not Active | Not Active | Not Active | Not Active | Not Active | Not Active | Not Active | – | – | – | – | – | –
O=C(O)CO [GLYCOLIC ACID] | Not Active | Not Active | Not Active | Not Active | Not Active | Not Active | Not Active | Not Active | – | – | – | – | – | –
CC(C)Cc1ccc([C@H](C)C(=O)O)cc1 [DEXIBUPROFEN] | Not Active | Not Active | Not Active | Not Active | Not Active | Not Active | Not Active | Not Active | – | – | – | – | – | –
CC(C)(C#N)c1cc(Cn2cncn2)cc(C(C)(C)C#N)c1 [ANASTROZOLE] | Not Active | Not Active | Not Active | Not Active | Not Active | Not Active | Not Active | Not Active | – | – | – | – | – | –
O=C1c2ccccc2C(=O)C1c1ccccc1 [PHENINDIONE] | Not Active | Not Active | Not Active | Not Active | Not Active | Not Active | Not Active | Not Active | – | – | – | – | – | –
NC(=O)NC(=O)Cc1ccccc1 [PHENACEMIDE] | Not Active | Not Active | Not Active | Not Active | Not Active | Not Active | Not Active | Not Active | – | – | – | – | – | –
O=C(NCCN1CCOCC1)c1ccc(Cl)cc1 [MOCLOBEMIDE] | Not Active | Not Active | Not Active | Not Active | Not Active | Not Active | Not Active | Not Active | – | – | – | – | – | –
OC[C@H]1O[C@@H]2O[C@H]3[C@H](O)[C@@H](O)[C@@H](O[C@H]4[C@H](O)[C@@H](O)[C@@H](O[C@H]5[C@H](O)[C@@H](O)[C@@H](O[C@H]6[C@H](O)[C@@H](O)[C@@H](O[C@H]7[C@H](O)[C@@H](O)[C@@H](O[C@H]1[C@H](O)[C@H]2O)O[C@@H]7CO)O[C@@H]6CO)O[C@@H]5CO)O[C@@H]4CO)O[C@@H]3CO [ALFADEX] | Not Active | Not Active | Not Active | Not Active | Not Active | Not Active | Not Active | Not Active | – | – | – | – | – | –
ClC1=C(Cl)[C@]2(Cl)[C@@H]3[C@@H]4C[C@@H]([C@H]5O[C@@H]45)[C@@H]3[C@@]1(Cl)C2(Cl)Cl [DIELDRIN] | Not Active | Not Active | Not Active | Not Active | Not Active | Not Active | Not Active | Not Active | – | – | – | – | – | –
O=c1[nH]c2ccccc2c2ccccc12 | Not Active | Not Active | Not Active | Not Active | Not Active | Not Active | Not Active | Not Active | – | – | – | – | – | –
CCC1(c2ccccc2)C(=O)NC(=O)NC1=O [PHENOBARBITAL] | Not Active | Not Active | Not Active | Not Active | Not Active | Not Active | Not Active | Not Active | – | – | – | – | – | –
